# According to patent US20240308978A1, “COMPOUNDS AND COMPOSITIONS FOR TREATING CONDITIONS ASSOCIATED WITH STING ACTIVITY” (IFM Due, Inc., priority 2021, published 2024):
# Biological target: T1, hSTING (Homo sapiens, UniProt Q86WV6, G230A/H232R/R293Q/R71H)
# T1 construct: host or cells: THP1-Dual KO-IFNAR2 cells
# Test: STING reporter assay (luciferase) in THP1-Dual KO-IFNAR2 cells stimulated with 2′3′cGAMP
# Format: cell-based
# Details: 15 μM 2′3′cGAMP transfected, 24 h
# Protocol: STING pathway activation by the compounds described herein was measured using THP1-Dual™ cells (KO-IFNAR2).
# THP1-Dual™ KO-IFNAR2 Cells (obtained from invivogen) were maintained in RPMI, 10% FCS, 5 ml P/S, 2 mM L-glut, 10 mM Hepes, and 1 mM sodium pyruvate. Compounds were spotted in empty 384 well tissue culture plates (Greiner 781182) by Echo for a final concentration of 0.0017-100 μM. Cells were plated into the TC plates at 40 μL per well, 2×10E6 cells/mL. For activation with STING ligand, 2′3′cGAMP (MW 718.38, obtained from Invivogen), was prepared in Optimem media.
# The following solutions were prepared for each 1×384 plate: • Solution A: 2 mL Optimem with one of the following stimuli: • 60 μL of 10 mM 2′3′cGAMP→150 μM stock • Solution B: 2 mL Optimem with 60 μL Lipofectamine 2000→Incubate 5 min at RT
# 2 mL of solution A and 2 ml Solution B was mixed and incubated for 20 min at room temperature (RT). 20 μL of transfection solution (A+B) was added on top of the plated cells, with a final 2′3′cGAMP concentration of 15 μM. The plates were then centrifuged immediately at 340 g for 1 minute, after which they were incubated at 37° C., 5% CO2,>98% humidity for 24 h. Luciferase reporter activity was then measured. EC50 values were calculated by using standard methods known in the art.
# Luciferase reporter assay: 10 μL of supernatant from the assay was transferred to white 384-plate with flat bottom and squared wells. One pouch of QUANTI-Luc™ Plus was dissolved in 25 mL of water. 100 μL of QLC Stabilizer per 25 mL of QUANTI-Luc™ Plus solution was added. 50 μL of QUANTI-Luc™ Plus/QLC solution per well was then added. Luminescence was measured on a Platereader (e.g., Spectramax I3X (Molecular Devices GF3637001)).
# Luciferase reporter activity was then measured. EC50 values were calculated by using standard methods known in the art.
# [1] = numeric bound given instead of a class symbol
# T1 sequence (Q86WV6 whole entry R71H/G230A/H232R/R293Q): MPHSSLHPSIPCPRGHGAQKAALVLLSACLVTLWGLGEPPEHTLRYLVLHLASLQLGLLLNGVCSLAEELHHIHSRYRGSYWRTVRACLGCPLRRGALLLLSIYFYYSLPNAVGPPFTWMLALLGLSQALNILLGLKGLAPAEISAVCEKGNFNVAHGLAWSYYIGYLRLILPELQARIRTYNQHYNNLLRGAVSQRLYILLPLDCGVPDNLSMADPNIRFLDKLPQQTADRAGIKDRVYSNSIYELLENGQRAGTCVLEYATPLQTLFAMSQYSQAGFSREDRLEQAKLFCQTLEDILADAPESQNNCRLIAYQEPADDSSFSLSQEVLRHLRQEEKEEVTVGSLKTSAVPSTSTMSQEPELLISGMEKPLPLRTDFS
EC50 (class symbols) [µM],EC50 [1] [µM],SMILES
5 to 100,–,"O=C(Nc1c[nH]c2ccc(Cl)cc12)N[C@H]1CC[C@@H](N2CCC(F)(F)CC2)CC1 [Compound 102, 1-(5-chloro-1H-indol-3-yl)-3-((1s,4s)-4-(4,4-difluoropiperidin-1-yl)cyclohexyl)urea]"
5 to 100,–,"O=C(Nc1c[nH]c2ccc(Cl)cc12)N[C@H]1CC[C@H](N2CCC(F)(F)CC2)CC1 [Compound 103, 1-(5-chloro-1H-indol-3-yl)-3-((1r,4r)-4-(4,4-difluoropiperidin-1-yl)cyclohexyl)urea]"
1 to 5,–,"O=C(Nc1c[nH]c2cc(F)c(F)cc12)NC1CC(OC2CCN(CC(F)(F)F)CC2)C1 (stereo not drawn) [Compound 104, 1-(5,6-difluoro-1H-indol-3-yl)-3-(3-((1-(2,2,2-trifluoroethyl)piperidin-4-yl)oxy)cyclobutyl)urea]"
0.2 to 1,–,"O=C(Nc1c[nH]c2ccc(Cl)cc12)NC1CCN(c2ccc(C(F)(F)F)cn2)CC1 [Compound 105, 1-(5-chloro-1H-indol-3-yl)-3-(1-(5-(trifluoromethyl)pyridin-2-yl)piperidin-4-yl)urea]"
–,> 30,"COCCN1CCC(O[C@H]2CC[C@H](NC(=O)Nc3c[nH]c4ccc(Cl)cc34)CC2)CC1 [Compound 106, 1-(5-chloro-1H-indol-3-yl)-3-((1r,4r)-4-((1-(2-methoxyethyl)piperidin-4-yl)oxy)cyclohexyl)urea]"
1 to 5,–,"O=C(Nc1c[nH]c2ccc(Cl)cc12)NC1CCN(Cc2ccc(C(F)(F)F)cn2)CC1 [Compound 107, 1-(5-chloro-1H-indol-3-yl)-3-(1-((5-(trifluoromethyl)pyridin-2-yl)methyl)piperidin-4-yl)urea]"
0.2 to 1,–,"O=C(Nc1c[nH]c2ccc(F)cc12)N[C@H]1CC[C@H](Oc2ccc(C(F)(F)F)cn2)CC1 [Compound 108, 1-(5-fluoro-1H-indol-3-yl)-3-((1r,4r)-4-((5-(trifluoromethyl)pyridin-2-yl)oxy)cyclohexyl)urea]"
0.2 to 1,–,"O=C(Nc1c[nH]c2ccc(F)cc12)N[C@H]1CC[C@@H](Oc2ccc(C(F)(F)F)cn2)CC1 [Compound 109, 1-(5-fluoro-1H-indol-3-yl)-3-((1s,4s)-4-((5-(trifluoromethyl)pyridin-2-yl)oxy)cyclohexyl)urea]"
0.2 to 1,–,"O=C(Nc1c[nH]c2ccc(Cl)cc12)N[C@H]1C[C@H](Oc2ccc(C(F)(F)F)cn2)C1 [Compound 110, 1-(5-chloro-1H-indol-3-yl)-3-((1r,3r)-3-((5-(trifluoromethyl)pyridin-2-yl)oxy)cyclobutyl)urea]"
0.2 to 1,–,"O=C(Nc1c[nH]c2ccc(Cl)cc12)N[C@H]1C[C@@H](Oc2ccc(C(F)(F)F)cn2)C1 [Compound 111, 1-(5-chloro-1H-indol-3-yl)-3-((1s,3s)-3-((5-(trifluoromethyl)pyridin-2-yl)oxy)cyclobutyl)urea]"
0.2 to 1,–,"O=C(Nc1c[nH]c2ccc(Cl)cc12)N[C@H]1CC[C@H](Oc2ccc(C(F)(F)F)cn2)CC1 [Compound 112, 1-(5-chloro-1H-indol-3-yl)-3-((1r,4r)-4-((5-(trifluoromethyl)pyridin-2-yl)oxy)cyclohexyl)urea]"
0.2 to 1,–,"O=C(Nc1c[nH]c2ccc(Cl)cc12)N[C@H]1CC[C@@H](Oc2ccc(C(F)(F)F)cn2)CC1 [Compound 113, 1-(5-chloro-1H-indol-3-yl)-3-((1s,4s)-4-((5-(trifluoromethyl)pyridin-2-yl)oxy)cyclohexyl)urea]"
1 to 5,–,"O=C(Nc1c[nH]c2ncc(F)cc12)N[C@H]1CC[C@@H](Oc2ccc(C(F)(F)F)cn2)CC1 [Compound 115, 1-(5-fluoro-1H-pyrrolo[2,3-b]pyridin-3-yl)-3-((1s,4s)-4-((5-(trifluoromethyl)pyridin-2-yl)oxy)cyclohexyl)urea]"
–,> 30,"O=C(Nc1c[nH]c2ncc(F)cc12)N[C@H]1CC[C@H](Oc2ccc(C(F)(F)F)cn2)CC1 [Compound 116, 1-(5-fluoro-1H-pyrrolo[2,3-b]pyridin-3-yl)-3-((1r,4r)-4-((5-(trifluoromethyl)pyridin-2-yl)oxy)cyclohexyl)urea]"

SMILES,EC50 (class symbols) [µM],EC50 [1] [µM]
"O=C(Nc1c[nH]c2cc(F)c(F)cc12)N[C@H]1CC[C@H](OC2CC(F)(F)C2)CC1 [Compound 101, 1-(5,6-difluoro-1H-indol-3-yl)-3-((1r,4r)-4-(3,3-difluorocyclobutoxy)cyclohexyl)urea]",1 to 5,–
